In EP4792811A1, “S1PR4 REGULATOR COMPOUND FOR MUSCLE DISEASE TREATMENT AND APPLICATION THEREOF” (Shengyuan Zetong (Shanghai) Pharmaceutical Co., Ltd, priority 2023, dated 2025):

Key:
S1PR2 = target: T1, S1PR2 (Homo sapiens, UniProt O95136); assay: FLIPR assay, S1PR2-CHO cell line; format: cell-based
T1 construct: expressed in transfected cells; host or cells: CHO
Description: (§1) ^a β-arrestin recruitment activity based on Tango-S1PR1-CHO-K1 and Tango-S1PR4-CHO-K1 cells, expressed as mean EC50 values ± SD. ^b FLIPR assays were performed using S1PR2-CHO and S1PR5-CHO cell lines, expressed as mean EC50 values ± SD. ^c β-arrestin recruitment activity based on PathHunter CHO-K1-S1PR3 cells, expressed as mean EC50 values ± SD. Data are the mean of at least two independent determinations, reported as mean ± SD (standard deviation).

S1PR3 = target: T2, S1PR3 (Homo sapiens, UniProt Q99500); assay: β-arrestin recruitment, PathHunter CHO-K1-S1PR3 cells; format: cell-based
T2 construct: expressed in transfected cells; host or cells: PathHunter CHO-K1
Description: as §1

[1] = test system: S1PR4-R82C/NDUFA10-R217W double-mutant mice; assay: In vivo efficacy in S1PR4-R82C/NDUFA10-R217W double-mutant muscular dystrophy mice; conditions: for grip strength (ratio of grip strength to body weight): after 21 days of treatment; for body weight gain trend: compared with the model group; for collagen deposition (collagen area ratio): after administration
Description: Experimental Animals: A total of 34 S1PR4-R82C/NDUFA10-R217W mice were divided into 6 groups as shown below.
Intragastric administration was initiated on Day 0, and body weight was measured daily during the experiment to adjust the drug dosage. Grip strength was measured at the beginning and end of the experiment to observe motor changes in mice. Changes in the limb grip strength, serum creatine kinase content, and muscle fibrosis/inflammation in mice were detected as indicators for evaluating drug efficacy.
The mouse was placed horizontally on the grip test board. The mouse's tail was held and pulled gently in the opposite direction without using excessive force. The tail was gradually pulled until the mouse released the grip force sensor. The maximum value recorded by the grip force sensor is the grip strength. The test was repeated for 3 times and the average value was taken.
After the completion of administration, blood was collected via the orbital sinus, allowed to stand for 30 minutes, centrifuged at 3000 rpm at 4°C for 15 minutes, and serum was extracted, stored frozen at -20°C, and detected in accordance with the kit instructions.
After the experiment, the tibialis anterior, extensor digitorum longus, and diaphragm of the mice were harvested, fixed, sectioned, and subjected to HE staining and Sirius Red staining to observe the degree of muscle fibrosis. The slice was subjected to immunofluorescence staining with F4/80 to observe the level of muscle inflammation.

LPS-induced sepsis model = assay: LPS-induced sepsis myopathy (skeletal muscle atrophy) model; format: in vivo, mice; conditions: for atrophy of the tibialis anterior muscle: 14 days of LPS treatment; for survival rate: 14 days after LPS (1 mg/kg)
Description: Animal models of sepsis can be established by injecting exogenous toxins into animals. In this study, a sepsis model was established via intraperitoneal injection of lipopolysaccharide to observe the effects of compounds on the occurrence and development of acquired weakness. This is a widely used method for modeling sepsis.
A skeletal muscle atrophy model induced by lipopolysaccharide can simulate clinical muscle atrophy caused by sepsis.
Mice were given a single intraperitoneal injection of LPS (1 mg/kg), followed by 14 consecutive days of intraperitoneal injection of either vehicle (1% DMSO dissolved in physiological saline) or Compound 30. Body weight was measured daily. After 14 days of LPS treatment, the mice were anesthetized, and the gastrocnemius and tibialis anterior muscles were harvested.

[2] = compared with the endogenous ligand S1P
[3] = 0.3 mg/kg intragastric once daily
[4] = 1 mg/kg intragastric once daily
[5] = 1 mg/kg intragastric once daily, after treatment
[6] = 3 mg/kg intragastric once daily

T2 sequence (Q99500 whole entry): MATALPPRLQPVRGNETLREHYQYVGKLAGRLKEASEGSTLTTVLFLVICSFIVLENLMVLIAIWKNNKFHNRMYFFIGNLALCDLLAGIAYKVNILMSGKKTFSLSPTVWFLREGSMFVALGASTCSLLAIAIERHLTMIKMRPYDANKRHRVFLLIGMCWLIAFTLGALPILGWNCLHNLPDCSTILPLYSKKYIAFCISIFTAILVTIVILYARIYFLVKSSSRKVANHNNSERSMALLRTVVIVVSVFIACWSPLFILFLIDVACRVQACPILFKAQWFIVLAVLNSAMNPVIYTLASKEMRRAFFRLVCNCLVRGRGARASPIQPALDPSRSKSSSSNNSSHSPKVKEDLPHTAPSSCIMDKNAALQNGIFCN
T1 sequence (O95136 whole entry, species assumed): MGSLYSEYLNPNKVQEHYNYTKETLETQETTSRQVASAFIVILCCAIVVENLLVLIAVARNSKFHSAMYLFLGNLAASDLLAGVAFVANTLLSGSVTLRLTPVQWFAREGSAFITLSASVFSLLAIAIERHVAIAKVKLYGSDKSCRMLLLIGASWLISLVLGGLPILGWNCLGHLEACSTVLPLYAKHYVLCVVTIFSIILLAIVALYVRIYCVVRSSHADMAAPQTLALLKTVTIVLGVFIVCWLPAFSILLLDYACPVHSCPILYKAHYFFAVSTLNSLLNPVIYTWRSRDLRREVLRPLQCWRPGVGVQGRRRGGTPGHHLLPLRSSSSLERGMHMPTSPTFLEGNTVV

`CCc1cc(/C(C)=N/OCc2ccc(-c3ccccc3)c(C)c2)ccc1CN1CC[C@H](C(=O)O)C1` [Compound 30] was tested, and the “agonist activity on S1PR2” value (S1PR2; [2]) was “no agonist activity”, the Emax (S1PR2; selectivity table, FLIPR, S1PR2-CHO) was -6.9% and the “agonist activity on S1PR3” value (S1PR3; [2]) was “no agonist activity”. The Emax (S1PR3; selectivity table, PathHunter CHO-K1-S1PR3) was 2.25%, the “grip strength (ratio of grip strength to body weight)” value [1, 3] was “significantly increased” and the “body weight gain trend” value [1, 3] was “no difference”. For the same compound, the “grip strength (ratio of grip strength to body weight)” value [1, 4] was “significantly increased”, the “collagen deposition (collagen area ratio)” value [1, 4] was “significantly reduced collagen deposition” and the “macrophage content (F4/80 immunofluorescence, muscle inflammation)” value [1, 5] was “greatest reduction”. The “number of centrally nucleated fibers (HE staining)” value [1, 5] was “greatest reduction”, the “serum creatine kinase level” value [1, 5] was “significantly reduced” and the “body weight gain trend” value [1, 4] was “no difference”. For the same compound, the “collagen deposition (collagen area ratio)” value [1, 6] was “significantly reduced collagen deposition”, the “body weight gain trend” value [1, 6] was “no difference” and the “serum creatine kinase level” value ([1]; 4 mg/kg (so in the source) intragastric once daily, after treatment) was “significantly reduced”. For the same compound, the “atrophy of the tibialis anterior muscle” value (LPS-induced sepsis model; high dose (Compound 30: 10mg/kg intraperitoneal once daily), 10 mg/kg) was “significantly inhibited”, the survival rate (LPS-induced sepsis model; low-dose group (0.1mg/kg intraperitoneal once daily)) was 75% and the “atrophy of the tibialis anterior muscle” value (LPS-induced sepsis model; medium dose (Compound 30: 1mg/kg intraperitoneal once daily), 1 mg/kg) was “significantly inhibited”. The survival rate (LPS-induced sepsis model; medium-dose group (1mg/kg intraperitoneal once daily)) was 50%.
